Results from patent US12606566B2, “Substituted cyclopenta[4,5]pyrrolo[1,2-a]pyrazines as bruton's tyrosine kinase inhibitors” (Shanghai Synergy Pharmaceutical Sciences Co., Ltd., priority 2020, dated 2026).

Assays:
BTK kinase = BTK kinase (Homo sapiens, UniProt Q06187); test: BTK kinase inhibitory activity, mobility shift method; format: biochemical; details: compound co-incubated with the enzyme for 30 minutes
Procedure: The BTK kinase inhibitory activity of the compound was determined using a mobility shift method with the reaction system (kinase solution, ATP, kinase substrate2). The compound was co-incubated with the enzyme for 30 minutes, and then the conversion rate was read using the Caliper EZ reader. The compound inhibition rate was determined using the calculation formula and the data was fitted using Graphpad to derive the IC50 value for the compounds of this application.

[1] = test system: tumour cells (A20 5E6 cells); test: Inhibitory effect on tumour cell proliferation (CCK8); format: cell-based; details: CCK8 absorbance, read-out: Inhibitory effect of the compound on cell proliferation IC50
Procedure: This experiment was to determine the effect of the compound on cell proliferation.
To determine the inhibitory effect of the compound on the proliferation of tumour cells, tumour cells (A20 5E6 cells) were cultured to a certain amount and seeded into 96-well plates. […] The absorbance value was measured after the addition of CCK8 and 2 h incubation to determine the inhibitory effect of the compound on cell proliferation. The IC50 value of the compound was obtained by data fitted with Graphpad.

BTK kinase, sequence (Q06187 whole entry): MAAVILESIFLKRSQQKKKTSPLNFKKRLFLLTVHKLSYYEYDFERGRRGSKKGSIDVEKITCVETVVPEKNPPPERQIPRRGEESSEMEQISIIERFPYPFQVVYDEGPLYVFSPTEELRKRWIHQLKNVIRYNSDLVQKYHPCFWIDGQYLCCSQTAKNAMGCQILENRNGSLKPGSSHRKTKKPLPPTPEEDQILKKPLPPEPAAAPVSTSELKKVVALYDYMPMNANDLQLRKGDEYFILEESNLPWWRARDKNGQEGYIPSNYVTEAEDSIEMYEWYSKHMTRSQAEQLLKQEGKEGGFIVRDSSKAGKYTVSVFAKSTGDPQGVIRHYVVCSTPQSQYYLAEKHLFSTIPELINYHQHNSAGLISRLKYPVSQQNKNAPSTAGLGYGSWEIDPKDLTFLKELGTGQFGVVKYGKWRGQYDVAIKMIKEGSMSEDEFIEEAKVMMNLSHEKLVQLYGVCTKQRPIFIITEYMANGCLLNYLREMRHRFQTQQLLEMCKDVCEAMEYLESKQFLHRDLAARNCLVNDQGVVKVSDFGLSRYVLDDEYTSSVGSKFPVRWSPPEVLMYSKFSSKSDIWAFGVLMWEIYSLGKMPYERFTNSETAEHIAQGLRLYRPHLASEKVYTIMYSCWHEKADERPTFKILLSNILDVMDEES

| IC50 (BTK kinase) | IC50 [1] | Structure (SMILES) |
| --- | --- | --- |
| 0.00021 µM | 0.021 µM | Cn1cc(-c2ccnc(N3CCn4c5c(c(F)c4C3=O)CC(C)(C)C5)c2CO)cc(Nc2ccc(N3CCN(C4COC4)CC3)cn2)c1=O [Example H10, 9-fluoro-2-(3′-(hydroxymethyl)-1-methyl-5-((5-(4-(oxetan-3-yl)piperazin-1-yl)pyridin-2-yl)amino)-6-oxo-1,6-dihydro-[3,4′-bipyridin]-2′-yl)-7,7-dimethyl-3,4,7,8-tetrahydro-2H-cyclopenta[4,5]pyrrolo[1,2-a]pyrazin-1(6H)-one] |
| 0.00026 µM | 0.013 µM | Cn1cc(-c2ccnc(N3CCn4c5c(c(F)c4C3=O)CC(C)(C)C5)c2CO)cc(Nc2ccc(N3CCC4(CC3)COC4)cn2)c1=O [Example H11, 2-(5-((5-(2-oxa-7-azaspiro[3.5]nonan-7-yl)pyridin-2-yl)amino)-3′-(hydroxymethyl)-1-methyl-6-oxo-1,6-dihydro-[3,4′-bipyridin]-2′-yl)-9-fluoro-7,7-dimethyl-3,4,7,8-tetrahydro-2H-cyclopenta[4,5]pyrrolo[1,2-a]pyrazin-1(6H)-one] |
| 0.00049 µM | 0.013 µM | CN1CC2(CCN(c3ccc(Nc4cc(-c5ccnc(N6CCn7c8c(c(F)c7C6=O)CC(C)(C)C8)c5CO)cn(C)c4=O)nc3)CC2)C1 [Example H12, 9-fluoro-2-(3′-(hydroxymethyl)-1-methyl-5-((5-(2-methyl-2,7-diazaspiro[3.5]nonan-7-yl)pyridin-2-yl)amino)-6-oxo-1,6-dihydro-[3,4′-bipyridin]-2′-yl)-7,7-dimethyl-3,4,7,8-tetrahydro-2H-cyclopenta[4,5]pyrrolo[1,2-a]pyrazin-1(6H)-one] |
| 0.00018 µM | 0.019 µM | Cn1cc(-c2ccnc(N3CCn4c5c(c(F)c4C3=O)CC(C)(C)C5)c2CO)cc(Nc2ccc(N3CCC4(CC3)CC(O)C4)cn2)c1=O [Example H13, 9-fluoro-2-(5-((5-(2-hydroxy-7-azaspiro[3.5]nonan-7-yl)pyridin-2-yl)amino)-3′-(hydroxymethyl)-1-methyl-6-oxo-1,6-dihydro-[3,4′-bipyridin]-2′-yl)-7,7-dimethyl-3,4,7,8-tetrahydro-2H-cyclopenta[4,5]pyrrolo[1,2-a]pyrazin-1(6H)-one] |

The remaining lines, values behind:

| Structure (SMILES) | IC50 (BTK kinase) | IC50 [1] |
| --- | --- | --- |
| C[C@H]1CN(C2COC2)CCN1c1ccc(Nc2cc(-c3ccnc(N4CCn5c6c(c(F)c5C4=O)CC(C)(C)C6)c3CO)cn(C)c2=O)nc1 [Example H01, (S)-9-fluoro-2-(3′-(hydroxymethyl)-1-methyl-5-((5-(2-methyl-4-(oxetan-3-yl)piperazin-1-yl)pyridin-2-yl)amino)-6-oxo-1,6-dihydro-[3,4′-bipyridin]-2′-yl)-7,7-dimethyl-3,4,7,8-tetrahydro-2H-cyclopenta[4,5]pyrrolo[1,2-a]pyrazin-1(6H)-one] | 0.00023 µM | 0.024 µM |
| C[C@H]1CN(C2COC2)CCN1c1ccc(Nc2cc(-c3ccnc(N4CCn5c6c(c(Cl)c5C4=O)CC(C)(C)C6)c3CO)cn(C)c2=O)nc1 [Example H02, (S)-9-chloro-2-(3′-(hydroxymethyl)-1-methyl-5-((5-(2-methyl-4-(oxetan-3-yl)piperazin-1-yl)pyridin-2-yl)amino)-6-oxo-1,6-dihydro-[3,4′-bipyridin]-2′-yl)-7,7-dimethyl-3,4,7,8-tetrahydro-2H-cyclopenta[4,5]pyrrolo[1,2-a]pyrazin-1(6H)-one] | 0.00059 µM | 0.023 µM |
| Cc1c2c(n3c1C(=O)N(c1nccc(-c4cc(Nc5ccc(N6CCN(C7COC7)C[C@@H]6C)cn5)c(=O)n(C)c4)c1CO)CC3)CC(C)(C)C2 [Example H03, (S)-2-(3′-(hydroxymethyl)-1-methyl-5-((5-(2-methyl-4-(oxetan-3-yl)piperazin-1-yl)pyridin-2-yl)amino)-6-oxo-1,6-dihydro-[3,4′-bipyridin]-2′-yl)-7,7,9-trimethyl-3,4,7,8-tetrahydro-2H-cyclopenta[4,5]pyrrolo[1,2-a]pyrazin-1(6H)-one] | 0.00014 µM | 0.061 µM |
| CC(C)n1cc(-c2ccnc(N3CCn4c(cc5c4CC(C)(C)C5)C3=O)c2CO)cc(Nc2ccc(N3CCN(C4COC4)C[C@@H]3C)cn2)c1=O [Example H04, (S)-2-(3′-(hydroxymethyl)-1-isopropyl-5-((5-(2-methyl-4-(oxetan-3-yl)piperazin-1-yl)pyridin-2-yl)amino)-6-oxo-1,6-dihydro-[3,4′-bipyridin]-2′-yl)-7,7-dimethyl-3,4,7,8-tetrahydro-2H-cyclopenta[4,5]pyrrolo[1,2-a]pyrazin-1(6H)-one] | 0.00026 µM | 0.026 µM |
| C[C@H]1CN(C2COC2)CCN1c1ccc(Nc2cc(-c3cc(C#N)cc(N4CCn5c(cc6c5CC(C)(C)C6)C4=O)c3CO)cn(C)c2=O)nc1 [Example H05, (S)-3-(7,7-dimethyl-1-oxo-1,3,4,6,7,8-hexahydro-2H-cyclopenta [4,5]pyrrolo[1,2-a]pyrazin-2-yl)-4-(hydroxymethyl)-5-(1-methyl-5-((5-(2-methyl-4-(oxetan-3-yl)piperazin-1-yl)pyridin-2-yl)amino)-6-oxo-1,6-dihydropyridin-3-yl) benzonitrile] | 0.00069 µM | 0.023 µM |
| C[C@H]1CN(C2COC2)CCN1c1ccc(Nc2cc(-c3ccc(C#N)c(N4CCn5c(cc6c5CC(C)(C)C6)C4=O)c3CO)cn(C)c2=O)nc1 [Example H06, (S)-2-(7,7-dimethyl-1-oxo-1,3,4,6,7,8-hexahydro-2H-cyclopenta [4,5]pyrrolo[1,2-a]pyrazin-2-yl)-3-(hydroxymethyl)-4-(1-methyl-5-((5-(2-methyl-4-(oxetan-3-yl)piperazin-1-yl)pyridin-2-yl)amino)-6-oxo-1,6-dihydropyridin-3-yl) benzonitrile] | 0.00041 µM | 0.031 µM |
| C[C@H]1CN(C2COC2)CCN1c1ccc(Nc2cc(-c3c(C#N)ccc(N4CCn5c(cc6c5CC(C)(C)C6)C4=O)c3CO)cn(C)c2=O)nc1 [Example H07, (S)-4-(7,7-dimethyl-1-oxo-1,3,4,6,7,8-hexahydro-2H-cyclopenta [4,5]pyrrolo[1,2-a]pyrazin-2-yl)-3-(hydroxymethyl)-2-(1-methyl-5-((5-(2-methyl-4-(oxetan-3-yl)piperazin-1-yl)pyridin-2-yl)amino)-6-oxo-1,6-dihydropyridin-3-yl) benzonitrile] | 0.00038 µM | 0.04 µM |
| CN1CCN(c2ccc(Nc3cc(-c4ccnc(N5CCn6c(cc7c6CC(C)(C)C7)C5=O)c4CO)nc4ccoc34)nc2)CC1 [Example H08, 2-(3-(hydroxymethyl)-4-(7-((5-(4-methylpiperazin-1-yl)pyridin-2-yl)amino)furo[3,2-b]pyridin-5-yl)pyridin-2-yl)-7,7-dimethyl-3,4,7,8-tetrahydro-2H-cyclopenta[4,5]pyrrolo[1,2-a]pyrazin-1(6H)-one] | 0.00023 µM | 0.029 µM |
| CC1(C)Cc2cc3n(c2C1)CCN(c1nccc(-c2cc(Nc4ccc(N5CCN(C6COC6)CC5)cn4)c4occc4n2)c1CO)C3=O [Example H09, 2-(3-(hydroxymethyl)-4-(7-((5-(4-(oxetan-3-yl)piperazin-1-yl)pyridin-2-yl)amino)furo[3,2-b]pyridin-5-yl)pyridin-2-yl)-7,7-dimethyl-3,4,7,8-tetrahydro-2H-cyclopenta[4,5]pyrrolo[1,2-a]pyrazin-1(6H)-one] | 0.00071 µM | 0.031 µM |
| C=CC(=O)N1CCC[C@@H](n2nc(-c3ccc(Oc4ccccc4)cc3)c3c(N)ncnc32)C1 [Ibrutinib, reference compound] |  | 0.087 µM |
